According to US20150011559A1, “ANTIMICROBIAL AGENTS” (RUTGERS, THE STATE UNIVERSITY OF NEW JERSEY, priority 2012, published 2015):
In brackets after ≈: the same amount, converted by molar mass. Where two headings read alike, the source gives them in different places.

What was measured:
[1] = test system: methicillin-susceptible Staphylococcus aureus (MSSA); experiment: Antibacterial assay (Test C), broth microdilution MIC against MSSA; format: cell-based; conditions: for MIC: Staphylococcus aureus, MSSA, read-out: MSSA MIC data
Method: (§1) Test C. Antibacterial Assay.
(§2) Antibacterial activity can be determined as per Clinical and Laboratory Standards Institute (CLSI) guidelines using a broth microdilution assay in which log-phase bacteria are grown at 37° C. in appropriate medium containing two-fold serial dilutions of a compound to yield final concentrations ranging from 256 to 0.06 μg/mL. For determination of minimal inhibitory concentration (MIC) values, bacterial growth is monitored after 24 to 48 hours by measuring optical density at 600 nm.
(§3) Using a procedure similar to Test C, representative compounds of the invention were tested against methicillin-susceptible Staphylococcus aureus (MSSA) and methicillin-resistant Staphylococcus aureus (MRSA).

[2] = test system: methicillin-resistant Staphylococcus aureus (MRSA); experiment: Antibacterial assay (Test C), broth microdilution MIC against MRSA; format: cell-based; conditions: for MIC: Staphylococcus aureus, MRSA, read-out: MRSA MIC data
Method: as §1, §2, §3

[3] = minimal inhibitory concentration, broth microdilution, growth completely inhibited
[4] = minimal inhibitory concentration, broth microdilution, growth completely inhibited, listed as 18
[5] = minimal inhibitory concentration, broth microdilution, growth completely inhibited, listed as 19
[6] = minimal inhibitory concentration, broth microdilution, growth completely inhibited, listed as 43
[7] = minimal inhibitory concentration, broth microdilution, growth completely inhibited, listed as 46
[8] = minimal inhibitory concentration, broth microdilution, growth completely inhibited, listed as 51

| MIC [1, 3] [µg/mL] | MIC [2, 3] [µg/mL] | SMILES | other results |
| --- | --- | --- | --- |
| 8 | 64 | C[N+](C)(C)c1ccc(-c2ccc(-c3ccccc3)cc2)cc1.[I-] [Code 1] |  |
|  |  | CC(C)(C)c1ccc(-c2cccc(CNC(=N)N)c2)cc1 [Code 3] | MSSA MIC data ([1]; minimal inhibitory concentration, broth microdilution, growth completely inhibited, listed as 2): >64.0 µg/mL |
|  | 1 (≈ 3.55 µM) | CC(C)(C)c1ccc(-c2cccc(CNC(=N)N)c2)cc1 [Code 4] | MSSA MIC data ([1]; minimal inhibitory concentration, broth microdilution, growth completely inhibited, listed as 3): 1.0 µg/mL |
| 8 (≈ 28.3 µM) | 16 (≈ 56.7 µM) | CC(C)(C)c1ccc(-c2ccnc(CN=C(N)N)c2)cc1 [Code 5] |  |
| 4 (≈ 11.8 µM) | 8 (≈ 23.6 µM) | CC(C)(C)c1ccc(-c2ccc3sc(CNC(=N)N)nc3c2)cc1 [Code 6] |  |
| 8 (≈ 20.6 µM) |  | CC(C)(C)OC(=O)NC(=N)NCc1nc(-c2ccc(C(C)(C)C)cc2)cs1 [Code 9] |  |
| 4 (≈ 13.9 µM) | 32 (≈ 111 µM) | CC(C)(C)c1ccc(-c2csc(CNC(=N)N)n2)cc1 [Code 10] |  |
| 8 (≈ 27.7 µM) | 32 (≈ 111 µM) | CC(C)(C)c1ccc(-c2ncc(CNC(=N)N)s2)cc1 [Code 11] |  |
| 2 (≈ 6.79 µM) | 8 (≈ 27.2 µM) | CC(C)(C)c1ccc(-c2cccc(/C=N/NC(=N)N)c2)cc1 [Code 12] |  |
| 1 (≈ 3.38 µM) | 2 (≈ 6.77 µM) | CC(NC(=N)N)c1cccc(-c2ccc(C(C)(C)C)cc2)c1 (centres unmarked) [Code 13] |  |
| 2 (≈ 5.86 µM) | 8 (≈ 23.4 µM) | COc1cc(-c2ccc(C(C)(C)C)cc2)cc(CNC(=N)N)c1OC [Code 14] |  |
| 4 (≈ 12.5 µM) | 4 (≈ 12.5 µM) | CC(C)(C)c1ccc(-c2cccc(OCCn3ccnc3)c2)cc1 [Code 15] |  |
| 2 (≈ 5.71 µM) | 2 (≈ 5.71 µM) | COc1cc(-c2ccc(C(C)(C)C)cc2)cc(Cn2ccnc2)c1OC [Code 16] |  |
| 2 (≈ 4.1 µM) | 4 (≈ 8.2 µM) | COCCOCCOCCOCCOc1cc(CNC(=N)N)cc(-c2ccc(C(C)(C)C)cc2)c1 [Code 17] |  |
| 4 (≈ 14.2 µM) |  | CC(C)(C)c1ccc(-c2ccc(CNC(=N)N)cc2)cc1 [Code 18] | MRSA MIC data ([2]; minimal inhibitory concentration, broth microdilution, growth completely inhibited, listed as 16): 16 µg/mL |
|  |  | CC(C)(C)c1ccc(-c2ccc(CNC(=N)N)cc2)cc1 [Code 20] | MSSA MIC data [1, 4]: 2.0 µg/mL; MRSA MIC data [2, 4]: 4.0 µg/mL |
|  |  | CC(C)(C)c1ccc(-c2ccc(CCN)cc2)cc1 [Code 21] | MSSA MIC data [1, 5]: 8.0 µg/mL; MRSA MIC data [2, 5]: 16 µg/mL |
| 16 (≈ 59.8 µM) | 32 (≈ 120 µM) | CN(C)Cc1ccc(-c2ccc(C(C)(C)C)cc2)cc1 [Code 22] |  |
| 4 (≈ 11.8 µM) | 8 (≈ 23.6 µM) | CN(C)Cc1ccc(-c2ccc(C(C)(C)C)cc2)cc1CN=C(N)N [Code 23] |  |
| 2 (≈ 7.11 µM) | 8 (≈ 28.4 µM) | CC(C)(C)c1cccc(-c2cccc(CNC(=N)N)c2)c1 [Code 24] |  |
| 4 (≈ 13.9 µM) | 8 (≈ 27.7 µM) | CC(C)(C)c1csc(-c2ccc(CN=C(N)N)cc2)n1 [Code 25] |  |
| 4 (≈ 13.9 µM) | 16 (≈ 55.5 µM) | CC(C)(C)c1csc(-c2cccc(CN=C(N)N)c2)n1 [Code 26] |  |
|  |  | CC(C)(C)c1csc(-c2ccc(CN=C(N)N)cc2)n1 [Code 28] | MRSA MIC data ([2]; minimal inhibitory concentration, broth microdilution, growth completely inhibited, listed as 25): 8 µg/mL |
| 4 (≈ 13.5 µM) | 8 (≈ 27.1 µM) | CC(C)(C)c1ccc(-c2cccc(C(=O)NC(=N)N)c2)cc1 [Code 29] |  |
|  |  | N=C(N)N/N=C/c1cccc(-c2ccc(Br)cc2)c1 [Code 30] | MSSA MIC data ([1]; minimal inhibitory concentration, broth microdilution, growth completely inhibited, listed as 27): 32 µg/mL |
| 2 (≈ 6.75 µM) | 4 (≈ 13.5 µM) | CC(C)(C)c1ccc(-c2cccc(CNNC(=N)N)c2)cc1 [Code 31] |  |
|  | 4 (≈ 12.6 µM) | N=C(N)N/N=C/c1cccc(-c2ccc(Br)cc2)c1 [Code 35] | MSSA MIC data ([1]; minimal inhibitory concentration, broth microdilution, growth completely inhibited, listed as 30): 4.0 µg/mL |
| 1 | 4 | C[N+](C)(C)c1cccc(-c2cccc(-c3cccc(-c4ccccc4)c3)c2)c1 [Code 36] |  |

| MIC [1, 3] [µg/mL] | MIC [2, 3] [µg/mL] | SMILES | other results |
| --- | --- | --- | --- |
|  |  | NC(N)=NCc1cccc(-c2ccc(Br)cc2)c1 [Code 41] | MIC [1]: 4 µg/mL (≈ 13.1 µM); MIC [2]: 8 µg/mL (≈ 26.3 µM) |
| 2 (≈ 5.23 µM) | 4 (≈ 10.5 µM) | COc1cc(CN2CCN(C)CC2)cc(-c2ccc(C(C)(C)C)cc2)c1OC [Code 42] |  |
| 1 (≈ 2.8 µM) | 2 (≈ 5.59 µM) | CC(C)(C)c1ccc(-c2ccc(-c3cccc(CNC(=N)N)c3)cc2)cc1 [Code 43] |  |
| 4 (≈ 9.67 µM) | 32 (≈ 77.4 µM) | CC(C)(C)c1ccc(-c2cc(CNC(=N)N)cc(-c3ccc(C(C)(C)C)cc3)c2)cc1 [Code 44] |  |
|  | 16 (≈ 54.2 µM) | CCC(C)NCc1cccc(-c2ccc(C(C)(C)C)cc2)c1 (centres unmarked) [Code 46] | MSSA MIC data ([1]; minimal inhibitory concentration, broth microdilution, growth completely inhibited, listed as 40): 4.0 µg/mL |
| 8 (≈ 27.5 µM) | 16 (≈ 55.1 µM) | CC(C)(C)c1ccc(-c2cccc(Cn3ccnc3)c2)cc1 [Code 47] |  |
|  |  | CC(C)(C)c1ccc(-c2cc(Cn3ccnc3)cc(NS(C)(=O)=O)c2)cc1 [Code 51] | MSSA MIC data [1, 6]: 1.0 µg/mL; MRSA MIC data [2, 6]: 2.0 µg/mL |
| 1 (≈ 2.87 µM) | 2 (≈ 5.74 µM) | COC(=O)c1ccc(-c2ccc(C(C)(C)C)cc2)cc1Cn1ccnc1 [Code 52, methyl 3-((1H-imidazol-1-yl)methyl)-4′-(tert-butyl)-[1,1′-biphenyl]-4-carboxylate] |  |
| 1 (≈ 2.12 µM) | 2 (≈ 4.24 µM) | COc1cc(OC(F)(F)F)ccc1-c1cc(CN=C(N)N)cc(-c2ccc(C(C)(C)C)cc2)c1 [Code 53] |  |
|  |  | CCC(C)NCc1cccc(-c2ccc(C(C)(C)C)cc2)c1 (centres unmarked) [Code 54] | MSSA MIC data [1, 7]: 16 µg/mL; MRSA MIC data [2, 7]: 32 µg/mL |
| 2 (≈ 6.24 µM) | 8 (≈ 25 µM) | CC(C)(C)c1ccc(-c2ccc(CO)c(Cn3ccnc3)c2)cc1 [Code 56] |  |
| 16 (≈ 66.8 µM) | 16 (≈ 66.8 µM) | CC(C)(C)c1ccc(-c2cccc(CN)c2)cc1 [Code 57] |  |
| > 64 |  | CCC(C)N(Cc1cccc(-c2ccc(C(C)(C)C)cc2)c1)C(=N)N (centres unmarked) [Code 57] |  |
| 32 (≈ 68.5 µM) |  | CC(C)(C)c1ccc(-c2cc(CNC(=N)N)cc(CC(Br)Br)c2)cc1 [Code 58] |  |
| 8 (≈ 23.9 µM) | 8 (≈ 23.9 µM) | CC(C)(C)c1ccc(-c2cc(Cn3ccnc3)cc([N+](=O)[O-])c2)cc1 [Code 58] |  |
| 16 (≈ 45.4 µM) | 16 (≈ 45.4 µM) | CC(C)(C)c1ccc(-c2cc(CNC(=N)N)cc(CNC(=N)N)c2)cc1 [Code 59] |  |
| > 64 |  | CC(C)(C)c1ccc(-c2cc(N)cc(Cn3ccnc3)c2)cc1 [Code 59] |  |
| 4 (≈ 10.8 µM) | 8 (≈ 21.6 µM) | CC(C)(C)c1ccc(-c2cc(Cn3ccnc3)cc(Cn3ccnc3)c2)cc1 [Code 60] |  |
|  |  | CC(C)(C)c1ccc(-c2cc(Cn3ccnc3)cc(NS(C)(=O)=O)c2)cc1 [Code 60] | MSSA MIC data [1, 8]: 16.0 µg/mL; MRSA MIC data [2, 8]: >64 µg/mL |
| 2 (≈ 4.2 µM) | 8 (≈ 16.8 µM) | CC(C)(C)c1ccc(-c2cc(CC(Br)Br)cc(Cn3ccnc3)c2)cc1 [Code 61] | MSSA MIC data [1, 3]: 4.0 µg/mL |
| 4 (≈ 11.1 µM) | 32 (≈ 88.8 µM) | O=C(Nc1nccs1)c1ccc(-c2cccc(Cn3ccnc3)c2)cc1 [Code 62] |  |
| 16 (≈ 46 µM) | > 64 | CC(=O)Nc1cc(Cn2ccnc2)cc(-c2ccc(C(C)(C)C)cc2)c1 [Code 63] |  |
| 2 (≈ 5.49 µM) | 8 (≈ 21.9 µM) | CC(C)(C)c1ccc(-c2cc(CNC(=N)N)cc(-c3cscn3)c2)cc1 [Code 63] |  |
|  | 32 (≈ 104 µM) | NC(N)=NCc1cccc(-c2ccc(-c3cncs3)cc2)c1 [Code 64] | MSSA MIC data [1, 3]: 4.0 µg/mL; MSSA MIC data ([1]; minimal inhibitory concentration, broth microdilution, growth completely inhibited, listed as 54): 16 µg/mL |
|  | 32 (≈ 104 µM) | NC(N)=NCc1cccc(-c2ccc(-c3cscn3)cc2)c1 [Code 65] | MSSA MIC data [1, 3]: 8.0 µg/mL; MSSA MIC data ([1]; minimal inhibitory concentration, broth microdilution, growth completely inhibited, listed as 55): 32 µg/mL |
| 16 (≈ 54.9 µM) | 16 (≈ 54.9 µM) | CC(C)(C)c1ccc(-c2cccc(Cn3cncn3)c2)cc1 [Code 66] | MRSA MIC data [2, 3]: 32 µg/mL |
| 32 (≈ 76.8 µM) |  | CC(C)(C)c1ccc(-c2ccc(C(=O)Nc3nccs3)c(Cn3ccnc3)c2)cc1 [Code 67] |  |

| SMILES | MIC [1, 3] [µg/mL] | MIC [2, 3] [µg/mL] | other results |
| --- | --- | --- | --- |
| CC(C)(C)c1ccc(-c2ccc(CCN)cc2)cc1 [Code 19] | 4 (≈ 15.8 µM) |  | MRSA MIC data ([2]; minimal inhibitory concentration, broth microdilution, growth completely inhibited, listed as 17): 4.0 µg/mL |
| CC(C)(C)c1ccc(-c2ccccc2CCN)cc1 [Code 37] | 32 (≈ 126 µM) |  |  |
| CC(C)(C)c1cccc(-c2ccccc2CCN)c1 [Code 38] | 32 (≈ 126 µM) |  |  |
| CC(C)(C)c1ccc(-c2cccc(CCN)c2)cc1 [Code 40] | 16 (≈ 63.1 µM) | 8 (≈ 31.6 µM) |  |
| Cc1cc(C)cc(-c2cccc(CCN)c2)c1 [Code 45] | 64 (≈ 284 µM) |  |  |
